Data: publication PMC12534982 (Journal of Experimental & Clinical Cancer Research : CR, 2025)

Key:
SW620 cells [1] = assay: RNA sequencing (RNASeq); format: cell-based, human; details: 25 µM, 48 h
Protocol: Cancer cells (2.2 × 10^6) were cultured in 100-mm Petri dishes and treated with either DMSO or NK-A 17E-233I (25 µM) for a duration of 48 h. Dry cell pellets were collected from three independent biological replicates and submitted to Novogene for RNASeq analysis (Cambridge, UK). The raw data are available in detail at the Zenodo repository (10.5281/zenodo.14833856).

[2] = test system: human colorectal cancer cell lines; assay: Cell viability assay (CellTiter-Glo); format: cell-based; details: dose-dependent; 48 h
colorectal cancer cells [3] = assay: Oxidative stress (CellROX Deep Red); format: cell-based, human
Protocol: Cancer cells (1 × 10^3) were cultured in 8-well collagen IV Ibidi chamber slides and treated with DMSO or NK-A 17E-233I (25 µM) for 24 h. The media was replaced with fresh media containing 100 nM MitoTracker Red dye to measure ΔΨm (1 mM stock; #M7512; Thermo Fisher Scientific) and 5 µM CellROX Deep Red Reagent to assess oxidative stress levels (2.5 mM stock; #C10422; Thermo Fisher Scientific) for 45 min. The cells were then fixed with 4% methanol-free PFA, washed with PBS, and mounted with Ibidi mounting medium containing 4',6-diamidino-2-phenylindole (DAPI) prior to imaging.
The density of γ-H2AX, Rad51, ΔΨm, and oxidative stress in cancer cells was measured as described in [32], utilizing custom macros available as open access at Zenodo (https://zenodo.org/records/8387899) to obtain raw intensities and individual cell area.

[4] = test system: colorectal cancer cell lines; assay: DNA fiber assays; format: cell-based, human
Protocol: Cancer cells were pulse-labeled with 20 µM iododeoxyuridine (IdU) in the dark at 37 °C for 20 min. Subsequently, the cells were washed twice with PBS and then pulse-labeled with 200 µM chlorodeoxyuridine (CldU) in the presence or absence of NK-A 17E-233I (25 µM) in the dark at 37 °C for 1 h. To assess fork restart in cancer cells following treatment, cells were pulse-labeled with 20 µM IdU for 10 min, after which NK-A 17E-233I (25 µM) was either added or no treatment was administered, followed by an additional 1 h of incubation. The cells were then washed twice with PBS and pulse-labeled with 200 µM CldU for 30 min. Following the labeling procedure, cells were washed twice with PBS, scrapped into PBS containing 0.1% Bovine Serum Albumin (BSA), pelleted, and resuspended in PBS with 0.1% BSA at a final concentration of 1.5 × 10^3 cells/µL. A volume of 2.5 µL of the cell suspension was spotted onto a positively charged slide and lysed with 7.5 µL of a spreading buffer (200 mM Tris–HCl, pH 7.5; 50 mM EDTA; 0.5% SDS) at room temperature for 8 min. The slides were then tilted at 45 ° to facilitate DNA spreading. After air-drying, the slides were fixed with ice-cold methanol/acetic acid (3:1) for 5 min, air-dried again, and stored at 4 °C.
The slides were rehydrated with PBS, denatured with 2.5 M HCl for 1 h, washed twice with PBS, and blocked with a blocking buffer (3% BSA; 0.1% Triton X-100 in PBS) for 40 min. Subsequently, the slides were incubated with a primary antibody mixture, including mouse anti-5-Bromo-2'-Deoxyuridine (anti-BrdU) recognizing IdU (#347580; Becton Dickinson, dilution 1:250) and rat anti-BrdU recognizing CldU (#6326; Abcam, dilution 1:250), diluted in a blocking buffer within a dark humid chamber at room temperature for 2.5 h.
For silencing, siNT (non-target, D-001810–10-20 On-TARGET plus Non-targeting pool, Dharmacon) (Horizon Discovery, Waterbeach, UK) and siPOLD2 (Smart pool, ON-TARGETplus Human POLD2 (5425) siRNA oligos directed against human POLD2), were used to transfect cells using RNAiMax Lipofectamine Reagent Mix (Life Technologies) according to the manufacturer’s protocol. 48 h post-transfection, the cells were harvested to evaluate the efficiency of gene silencing, which was estimated to be approximately 90% based on western blot analysis, for further experimental applications.
Afterwards, the slides were washed three times with PBS for 5 min each and incubated with secondary antibodies, anti-mouse Alexa Fluor 594 and anti-rat Alexa Fluor 488 (#A11005 and #A11006, respectively; Invitrogen, dilution 1:250), in a blocking buffer at room temperature in a dark humid chamber for 1 h. After three additional washes with PBS and air-drying, the slides were mounted with ProLong Gold Antifade Reagent (#P36930; Invitrogen) and stored at 4 °C until imaging. Images were acquired using an AF6000 Leica Fluorescence microscope equipped with an HCX PL APO 63x (NA = 1.4) oil objective. ImageJ/Fiji software was utilized to measure the fibers with the segmented line tool.

SW620 cells [5] = assay: Lactate assay; format: cell-based, human; details: 25 µM, 24 h; in comparison to Brequinar (100 µM)
Protocol: This assessment was conducted utilizing a Lactate Assay Kit-WST (#L256-20; Dojindo Laboratories), in accordance with the manufacturer's protocol. Optical density measurements were recorded at 450 nm using a Victor Multilabel Plate Reader.

colorectal cancer cells [6] = assay: Flow cytometry-based cell cycle analysis; set-up: species or system human
Protocol: Cancer cells (3 × 10^4) were cultured in 48-well plates and treated with DMSO or NK-A 17E-233I (25 µM) for 24 h. Following treatment, all wells were washed with PBS (#P4417; Sigma-Aldrich), and the cells were collected in Eppendorf tubes. The cells were harvested using 0.25% trypsin (#25200056; ThermoScientific) and 0.02% EDTA (1:1) (#17892; ThermoFisher Scientific) for 2 min, followed by the addition of DMEM. The tubes were then centrifuged at 500 × g for 5 min. The supernatant was discarded, and the pellets were fixed in 70% cold ethanol and stored at -20 °C for at least 1 h. The pellets were resuspended in 1 mL PBS and centrifuged at 500 × g at 4 °C for 5 min. The supernatant was discarded once again, and the pellets were subsequently reconstituted in a solution containing propidium iodide (PI; #25,535–16-4, Merck) and RNase (#N8080119, Applied Biosystems), followed by storage at 4 °C overnight. Cell cycle analysis was conducted using a CytoFLEX flow cytometer (Beckman Coulter; 405 nm laser). Cells were gated based on size and granularity on a forward scatter (FSC)/side scatter (SSC) plot, with cell debris excluded from the analysis. Mean fluorescence intensity from 1 × 10^4 cells was recorded. Data analysis was conducted using FlowJo software v10.8.1 (BD Life Sciences).

COc1cc(C)c(Oc2cc(C)cc(O)c2O)c(O)c1 [NK-A 17E-233I]
POLD2 gene expression (RNASeq) (SW620 cells [1]): significantly downregulated | viability [2]: reduced the viability | ROS levels (colorectal cancer cells [3]; HCT116, 25 µM, 24 h): significantly decreased | ROS levels (colorectal cancer cells [3]; different cancer cell lines (HT-29), 25 µM): without significant effect | speed of replication forks (CldU tracks) ([4]; 25 µM, 1 h): significantly reduced | rescue of replication fork speed by physiological uridine ([4]; 25 µM, uridine 10 µM): did not demonstrate any discernible rescue | rescue of DNA-damaging effects by excess uridine ([4]; 25 µM, uridine 200 µM): rescued the DNA-damaging effects | replication fork progression after washout (fork restart) ([4]; LS174T, 25 µM, 1 h then washout): continued to demonstrate a diminished progression rate | speed of replication forks (CldU tract length) ([4]; SW620, 25 µM, 1 h): significantly diminished | concentration of lactate (SW620 cells [5]): significantly reduced | cell cycle distribution (colorectal cancer cells [6]; 25 µM): arrest of colorectal cancer cells in the S-phase and an increase in sub-G1 cell populations | cell cycle after washout (colorectal cancer cells [6]; washout 12 h, NK-A 17E-233I 25 µM, HU 1 mM): remained arrested and/or underwent cell death
